# Data taken from patent publication US20190216956A1, “COMPOSITIONS FOR RADIOTHERAPY AND USES THEREOF” (priority 2016, published 2019).
# Where a name gives a salt, the structure may show the parent alone.
# How the values were obtained:
# [1] = tested on: NCI-2052H cells; test: Cytotoxicity assay (MTS) of NCI-2052H cells: bleomycin, mitomycin, doxorubicin, paclitaxel, talc, talc bound to drugs (Example 23); type: cell-based; details: for Average readings: cells + drug, bleomycin / Average reading: cells + drug, mitomycin: absorbance 490 nm
# [2] = tested on: NCI-28H cells; test: Cytotoxicity assay (MTS) of NCI-28H cells treated with bleomycin, talc, talc bound to bleomycin (Example 16); type: cell-based; details: 72 hrs
# Procedure: Read absorbance (MTS assay) and calculate cells survival rate.
# 1. […] 500,000 cells/670,000=0.75 ml of cells/media mix need to take from flask and transfer to 9.25 ml media. […] Gently mix.
# 1. Bring back tubes from cold room to laboratory. Centrifuge 3200 rpm for 3 min. Take out supernatant.
# 3. Wash cells 2×300 μL DPBS, remove final wash.
# 6. Incubate plate 1 hr at 37° C., 5% CO2.
# [3] = tested on: NCI-2052H cells; test: Repeated cytotoxicity experiment (MTS): NCI-2052H cells, mitomycin, talc, talc bound to mitomycin (Example 24); type: cell-based; details: for Average reading: drug + cells: absorbance 490 nm
# Procedure: Compare survival rate of cells.
# 1. […] Protocol how to do that see in previous cytotoxicity experiment.
# (§1) 1. Centrifuge tubes at 3200 rpm for 3 min. Take out supernatant.
# 1. Incubate plate for 72 hrs at 37° C., 5% CO2.
# 3. Wash all wells 1×300 μL DPBS, remove final wash.
# [4] = tested on: NCI-28H cells; test: Cytotoxicity assay (MTS) of NCI-28H cells: carboplatin, mitomycin, gemcitabine, talc, talc bound to drugs (Example 22); details: NCI-28H cells; for Average absorbance readings: cells + drug, mitomycin: 490 nm
# Procedure: Read absorbance (MTS assay) and calculate cells survive rate. Compare survival rate
# 1. Set up 3 cytotoxicity plates for tomorrow experiment: trypsinize NCI-28H cells (T-75 flask, passage 12): • Remove old medium, wash cells with 7 ml DPBS, remove DPBS, add 2 ml trypsin, incubate plates for 1-2′, when cells detached add 6 ml fresh medium, mix cells and medium. • Count cells under the microscope using the glass slide. […] If we need 200 wells, in each well will be 5,000 cells in 0.1 ml; so total we need 1,000,000 cells in 20 ml.
# 2. […] Final solution is 500 μL of 500 μM carboplatin.
# 4. […] Final solution is 500 μL of 200 μM Gemcitabine.
# as §1
# 3. Add 100 μL of each 8 preparations of diluted carboplatin (step 1 and 2) to the proper wells according to a plate layout.
# 4. Add 100 μL of each 8 preparations of diluted Gemcitabine (step 1, 2, 3) to the proper wells according to a plate layout.
# 6. Check the plate and start incubation at 37° C./5% CO2.
# 3. Wash all cells 1×300 μL DPBS, remove final wash.
# [5] = Talc bound to HRP- and cold-Avidin, 48 hours in PBS containing 10% FBS (Example 14); type: physicochemical
# Procedure: Purpose: To check how strong the conjugate of hot/cold Avidin to Talc is. […] Absorbance will be checked twice—once before washing with PBS containing 10% FBS and after 48 hours, washing will be done.
# 6. Weigh 8 mg of Avidin (cold Avidin), then resuspend it in 2 mL of PBS containing 40 ng/mL of “hot” Avidin. So the solution will now be 40 ng/mL hot Avidin+4 mg/mL of Cold Avidin. Label this tube as #1.
# 14. […] Two identical microplates need to be set up, labeling them as: plate #1 and plate #2. Design of the plate:
# 3. Wash both plates 3× with 300 μL PBS.
# 5. […] Mix constantly, cover plate with Aluminum foil.
# 6. Add 100 μL of TMB to samples in plate #1.
# 9. Read absorbance at 450 nm using the plate reader.
# 3. Collect 100 μL supernatant from samples except native controls and load on same plate.
# 4. Wash plate except supernatant samples 3× with 300 μL PBS.
# 6. Add 100 μL of TMB to all samples in plate#2.
compound,measurement,setting,value
"Cc1c(N)nc([C@H](CC(N)=O)NC[C@H](N)C(N)=O)nc1C(=O)N[C@H](C(=O)N[C@H](C)[C@@H](O)[C@H](C)C(=O)N[C@H](C(=O)NCCc1nc(-c2nc(C(=O)NCCC[S+](C)C)cs2)cs1)[C@@H](C)O)[C@@H](O[C@@H]1OC(CO)[C@@H](O)C(O)C1O[C@H]1OC(CO)[C@@H](O)C(OC(N)=O)C1O)c1c[nH]cn1 (stereo partly drawn) [Bleomycin, Bleomycin sulfate Streptomyces verticillus]",% survival from untreated cells,[1]; Bleomycin 0.24 ug/ml,101.64%
same,% survival from untreated cells,[1]; Bleomycin 0.97 ug/ml,97.34%
same,% survival from untreated cells,[1]; Bleomycin 3.9 ug/ml,88.64%
same,% survival from untreated cells,[1]; Bleomycin 15.6 ug/ml,51.72%
same,% survival from untreated cells,[1]; Bleomycin 62.5 ug/ml,38.34%
same,% survival from untreated cells,[1]; Bleomycin 250 ug/ml,20.89%
same,% survival from untreated cells,[1]; Bleomycin 1000 ug/ml,14.62%
same,"Average readings: cells + drug, bleomycin",[1]; bleomycin 0.24 μg/ml,1.3454
same,"Average readings: cells + drug, bleomycin",[1]; bleomycin 0.97 μg/ml,1.2884
same,"Average readings: cells + drug, bleomycin",[1]; bleomycin 3.9 μg/ml,1.1733
same,"Average readings: cells + drug, bleomycin",[1]; bleomycin 15.6 μg/ml,0.6846
same,"Average readings: cells + drug, bleomycin",[1]; bleomycin 62.5 μg/ml,0.5075
same,"Average readings: cells + drug, bleomycin",[1]; bleomycin 250 μg/ml,0.2766
same,"Average readings: cells + drug, bleomycin",[1]; bleomycin 1000 μg/ml,0.1935
same,% survival NCI-28H cells after treatment with BLEOMYCIN,[2]; 0.004 ug/ml,92.41%
same,% survival NCI-28H cells after treatment with BLEOMYCIN,[2]; 0.015 ug/ml,88.25%
same,% survival NCI-28H cells after treatment with BLEOMYCIN,[2]; 0.06 ug/ml,93.38%
same,% survival NCI-28H cells after treatment with BLEOMYCIN,[2]; 0.24 ug/ml,91.86%
same,% survival NCI-28H cells after treatment with BLEOMYCIN,[2]; 0.97 ug/ml,86.19%
same,% survival NCI-28H cells after treatment with BLEOMYCIN,[2]; 3.9 ug/ml,71.05%
same,% survival NCI-28H cells after treatment with BLEOMYCIN,[2]; 15.6 ug/ml,74.60%
same,% survival NCI-28H cells after treatment with BLEOMYCIN,[2]; 62.5 ug/ml,68.76%
same,% survival NCI-28H cells after treatment with BLEOMYCIN,[2]; 250 ug/ml,47.13%
same,% survival NCI-28H cells after treatment with BLEOMYCIN,[2]; 1000 ug/ml,24.92%
CO[C@@]12[C@H](COC(N)=O)C3=C(C(=O)C(C)=C(N)C3=O)N1C[C@@H]1N[C@@H]12 [mitomycin],"Average reading: cells + drug, mitomycin",[1]; mitomycin 0.013 μM,1.284
same,"Average reading: cells + drug, mitomycin",[1]; mitomycin 0.064 μM,1.199
same,"Average reading: cells + drug, mitomycin",[1]; mitomycin 8 μM,0.4142
same,"Average reading: cells + drug, mitomycin",[1]; mitomycin 40 μM,0.2305
same,"Average reading: cells + drug, mitomycin",[1]; mitomycin 200 μM,0.2098
same,"Average reading: cells + drug, mitomycin",[1]; mitomycin .0026 μM,1.424
same,Average reading: drug + cells,[3]; Mitomycin 0.013 uM,0.7907
same,Average reading: drug + cells,[3]; Mitomycin 0.064 uM,0.8267
same,Average reading: drug + cells,[3]; Mitomycin 8 uM,0.4217
same,Average reading: drug + cells,[3]; Mitomycin 40 uM,0.2257
same,Average reading: drug + cells,[3]; Mitomycin 200 uM,0.2243
same,Average reading: drug + cells,[3]; Mitomycin .0026 uM,0.8637
same,% survival from untreated cells,[3]; mitomycin 0.0026 (uM per Table 103),78.87%
same,% survival from untreated cells,[3]; mitomycin 0.013 (uM per Table 103),72.21%
same,% survival from untreated cells,[3]; mitomycin 0.064 (uM per Table 103),75.49%
same,% survival from untreated cells,[3]; mitomycin 0.32 (uM per Table 103),75.10%
same,% survival from untreated cells,[3]; mitomycin 1.6 (uM per Table 103),61.83%
same,% survival from untreated cells,[3]; mitomycin 8 (uM per Table 103),38.51%
same,% survival from untreated cells,[3]; mitomycin 40 (uM per Table 103),20.61%
same,% survival from untreated cells,[3]; mitomycin 200 (uM per Table 103),20.49%
same,"Average absorbance readings: cells + drug, mitomycin",[4]; mitomycin 0.0026 μM,2.032
same,"% survival cells after exposure to drug for 72 hrs (cells + drug only), mitomycin",[4]; mitomycin 0.0026 μM,106.12%
same,"Average absorbance readings: cells + drug, mitomycin",[4]; mitomycin 0.013 μM,1.965
same,"% survival cells after exposure to drug for 72 hrs (cells + drug only), mitomycin",[4]; mitomycin 0.013 μM,102.65%
same,"Average absorbance readings: cells + drug, mitomycin",[4]; mitomycin 0.064 μM,1.8766
same,"% survival cells after exposure to drug for 72 hrs (cells + drug only), mitomycin",[4]; mitomycin 0.064 μM,98.03%
same,"Average absorbance readings: cells + drug, mitomycin",[4]; mitomycin 8 μM,0.3451
same,"% survival cells after exposure to drug for 72 hrs (cells + drug only), mitomycin",[4]; mitomycin 8 μM,18.03%
same,"Average absorbance readings: cells + drug, mitomycin",[4]; mitomycin 40 μM,0.52
same,"% survival cells after exposure to drug for 72 hrs (cells + drug only), mitomycin",[4]; mitomycin 40 μM,27.16%
same,"Average absorbance readings: cells + drug, mitomycin",[4]; mitomycin 200 μM,0.2464
same,"% survival cells after exposure to drug for 72 hrs (cells + drug only), mitomycin",[4]; mitomycin 200 μM,12.87%
"Avidin: Avidin from egg white (Sigma); 60,000 m.w. egg-white protein that binds biotin",stability of binding of Avidin to talc,[5],unchanged at 48 hours
